Data taken from patent publication US4136192A, “4-Hydroxy-3-nitro (cyano) coumarins” (Beecham Group Limited, priority 1975, dated 1979).

System: slow reacting substance of anaphylaxis (SRS-A)
Assay: SRS-A antagonism on isolated guinea pig ileum
Set-up: species or system guinea pig ileum (SRS-A from rat)
Settings: isolated guinea pig ileum strips, rat SRS-A, tyrode with atropine and mepyramine; 50% inhibition per method; read-out: SRS-A antagonism on Guinea Pig Ileum: Approximate concentration to give inhibition of a than maximal response to SRS-A
Description: The compounds have been evaluated as direct antagonists of slow reacting substance of anaphylaxis (SRS-A) by assay using the isolated guinea pig ileum.
SRS-A rat was obtained from the peritoneal cavity of the rat after passive peritoneal anaphylaxis by a method based on that of R. P. Orange, D. J. Stechschulte and K. F. Austen, J. Immunology, 105 1087 (1970) as described by B. A. Spicer, J. W. Ross and H. Smith, Clin. exp. Immunol. 1975, 21, 419. The sensitizing serum containing reaginic antibody was produced in rats as described by B. A. Spicer, et. al. ibid.
2 ml of a 1 in 5 dilution of the sensitizing serum was injected by the peritoneal route into recipient rats and after 2 hours, 5 ml of tyrode solution containing 0.4 mg/ml ovalbumin (Sigma Grade III) and 50 μg/ml heparin was injected by the same route. Five minutes after challenge the rats were stunned and bled and the peritoneal fluids collected into polycarbonate tubes in ice. After centrifugation at 150 g for 5 minutes the supernatants were combined, heated in a boiling water bath for 5 minutes, cooled and stored at -20° C. The combined peritioneal fluids contained SRS-A and were used in the antagonism studies.
The SRS-A assays were carried out on isolated strips of guinea pig ileum in tyrode solution containing atropine 5 × 10^-7 M and mepyramine 10^-6 M as described by W. E. Brocklehurst, J. Physiology, 151, 416 (1960).
The activity of the antagonists was determined by their ability to reduce submaximal responses induced by SRS-A. The antagonists were added to a 4 ml bath in 0.1 ml volumes in aqueous solution half a minute before the addition of SRS-A and were present during induced contraction. Two or three concentrations of antagonists were used and the percentage inhibition of the SRS-A response plotted against the bath concentration of antagonist. The line of best fit was drawn and the concentration to cause 50% inhibition IC50 read graphically.

Compound | IC50 [µM]
Cc1ccc(OCCCOc2ccc3c(O)c([N+](=O)[O-])c(=O)oc3c2)c([N+](=O)[O-])c1 [Example 137, 4-Hydroxy-7-(3-[4-methyl-2-nitrophenoxy]propoxy)-3-nitrocoumarin] | 10
O=c1oc2cc(OCCCCc3ccccc3)ccc2c(O)c1[N+](=O)[O-] [Example 121, 4-Hydroxy-3-nitro-7-(4-phenylbutoxy) coumarin] | 1
CCCc1c(OCC(O)COc2ccc3c(O)c([N+](=O)[O-])c(=O)oc3c2)ccc(C(C)=O)c1O (centres unmarked) [Example 114, 7-(3-[4-Acetyl-3-hydroxy-2-n-propylphenoxy]-2-hydroxypropoxy)-4-hydroxy-3-nitrocoumarin] | 0.01
O=c1oc2cc(OCCCCOc3ccccc3)ccc2c(O)c1[N+](=O)[O-] [Example 150, 4-Hydroxy-3-nitro-7-(4-phenoxybutoxy)-coumarin] | 1
O=c1oc2cc(OCCCOc3ccc(F)cc3)ccc2c(O)c1[N+](=O)[O-] [Example 159, 7-(3-[4-Fluorophenoxy]propoxy)-4-hydroxy-3-nitrocoumarin] | 0.1
CCCc1c(OCCCOc2ccccc2)ccc2c(O)c([N+](=O)[O-])c(=O)oc12 [Example 131, 4-Hydroxy-3-nitro-7-(3-phenoxy-propoxy) 8-n-propylcoumarin] | 1
O=c1oc2cc(OCCc3ccccc3)ccc2c(O)c1[N+](=O)[O-] [Example 116, 4-Hydroxy-3-nitro-7-(2-phenylethoxy) coumrin] | 1
Cc1cccc(OCCCOc2ccc3c(O)c([N+](=O)[O-])c(=O)oc3c2)c1 [Example 156, 4-Hydroxy-7-(3-[3-methylphenoxy]propoxy)-3-nitrocoumarin] | 1
O=c1oc2cc(OCCCOc3ccc4c(c3)CCCC4)ccc2c(O)c1[N+](=O)[O-] [Example 162, 4-Hydroxy-3-nitro-7-(3-[5,6,7,8-tetrahydro-2-naphthyloxy]propoxy) coumarin] | 10
O=c1oc2cc(OCCCOc3ccc(Cl)cc3)ccc2c(O)c1[N+](=O)[O-] [Example 133, 7-(3-[4-Chlorophenoxy]propxy-4-hydroxy-3-nitrocoumarin] | 1
O=c1oc2cc(OCCCOc3ccccc3)ccc2c(O)c1[N+](=O)[O-] [Example 129, 4-Hydroxy-3-nitro-7-(3-phenoxypropoxy) coumarin] | 1
O=c1oc2cc(OCCCCCOc3ccccc3)ccc2c(O)c1[N+](=O)[O-] [Example 152, 4-Hydroxy-3-nitro-7-(5-phenoxypentoxy)-coumarin] | 1
CC(=O)c1ccc(OCC(O)COc2ccc3c(O)c([N+](=O)[O-])c(=O)oc3c2)c(C)c1O (centres unmarked) [Example 144, 7-(3-[4-Acetyl-3-hydroxy-2-methyl-phenoxy]-2-hydroxy-propoxy)-4-hydroxy-3-nitrocoumarin] | 0.1
Cc1ccc(CCCCOc2ccc3c(O)c([N+](=O)[O-])c(=O)oc3c2)cc1 [Example 123, 4-Hydroxy-7-(4-[4-methylphenyl]butoxy)-3-nitrocoumarin] | 1
CCCc1c(OCCCOc2ccc3c(O)c([N+](=O)[O-])c(=O)oc3c2)ccc(C(C)=O)c1O [Example 139, 7-(3-[4-Acetyl-3-hydroxy-2-n-propylphenoxy]propoxy)-4-hydroxy-3-nitrocoumarin] | 0.1
O=c1oc2ccc(OCCCOc3ccccc3)cc2c(O)c1[N+](=O)[O-] [Example 128, 4-Hydroxy-3-nitro-6-(3-phenoxypropoxy) coumarin] | 1
CC(=O)c1ccc(OCCCOc2ccc3c(O)c([N+](=O)[O-])c(=O)oc3c2)cc1 [Example 136, 7-(3-[4-Acetylphenoxy]propoxy)-4-hydroxy-3-nitrocoumarin] | 1
O=c1oc2ccc(OCCCCCOc3ccccc3)cc2c(O)c1[N+](=O)[O-] [Example 151, 4-Hydroxy-3-nitro-6-(5-phenoxypentoxy)-coumarin] | 1
O=c1oc2cc(OCCCc3ccccc3)ccc2c(O)c1[N+](=O)[O-] [Example 119, 4-Hydroxy-3-nitro-7-(3-phenylpropoxy) coumarin] | 1
O=c1oc2cc(OCCCCc3ccc(Cl)cc3)ccc2c(O)c1[N+](=O)[O-] [Example 122, 7-(4-[4-Chlorophenyl]butoxy)-4-hydroxy-3-nitrocoumarin] | 1

Now from value to molecule:

IC50 [µM] | Compound
10 | O=c1oc2ccc(OCCc3ccccc3)cc2c(O)c1[N+](=O)[O-] [Example 115, 4-Hydroxy-3-nitro-6-(2-phenylethoxy) coumarin]
10 | O=c1oc2ccc(OCCOc3ccccc3)cc2c(O)c1[N+](=O)[O-] [Example 125, 4-Hydroxy-3-nitro-6-(2-phenoxyethoxy) coumarin]
1 | Cc1cc(OCCCOc2ccccc2)cc2oc(=O)c([N+](=O)[O-])c(O)c12 [Example 130, 4-Hydroxy-5-methyl-3-nitro-7-(3-phenoxypropoxy)]
10 | O=c1oc2cc(OCCCOc3ccc(-c4ccccc4)cc3)ccc2c(O)c1[N+](=O)[O-] [Example 161, 4-Hydroxy-7-(3-[4-phenylphenoxy]propoxy)-3-nitro-coumarin]
1 | COc1ccc(OCCCOc2ccc3c(O)c([N+](=O)[O-])c(=O)oc3c2)cc1 [Example 158, 4-Hydroxy-7-(3-[4-methoxyphenoxy]propoxy)-3-nitrocoumarin]
0.1 | O=c1oc2ccc(OCCCCCCOc3ccccc3)cc2c(O)c1[N+](=O)[O-] [Example 153, 4-hydroxy-3-nitro-6-(6-phenoxyhexoxy) coumarin]
1 | CC(=O)c1ccc(CCCOc2ccc3c(O)c([N+](=O)[O-])c(=O)oc3c2)cc1 [Example 120, 7-(3-[4-Acetylphenyl]propoxy)-4-hydroxy-3-nitrocoumarin]
10 | O=c1oc2cc(OCC(O)COc3ccccc3)ccc2c(O)c1[N+](=O)[O-] (centres unmarked) [Example 141, 4-Hydroxy-7-(2-hydroxy-3-phenoxypropoxy)-3-nitrocoumarin]
1 | O=c1oc2ccc(OCCCc3ccccc3)cc2c(O)c1[N+](=O)[O-] [Example 118, 4-Hydroxy-3-nitro-6-(3-phenylpropoxy) coumarin]
10 | O=C(O)c1ccc(OCC(O)COc2ccc3c(O)c([N+](=O)[O-])c(=O)oc3c2)cc1 (centres unmarked) [Example 140, 7-(3-[4-Carboxyphenoxy]-2-hydroxy-propoxy)-4-hydroxy-3-nitrocoumarin]
1 | CC(=O)c1ccc(OCCCOc2ccc3c(O)c([N+](=O)[O-])c(=O)oc3c2)cc1O [Example 138, 7-(3-[4-Acetyl-3-hydroxyphenoxy]propoxy)-4-hydroxy-3-nitrocoumarin]
1 | Cc1ccc(OCCCOc2ccc3c(O)c([N+](=O)[O-])c(=O)oc3c2)cc1 [Example 157, 4-Hydroxy-7-(3-[4-methylphenoxy]propoxy)-3-nitrocoumarin]
10 | CC(=O)c1ccc(OCC(O)COc2ccc3c(O)c([N+](=O)[O-])c(=O)oc3c2)cc1O (centres unmarked) [Example 143, 7-(3-[4-Acetyl-3-hydroxyphenoxy]2-hydroxypropoxy)-4-hydroxy-3-nitrocoumarin]
10 | COC(=O)c1ccc(OCCCOc2ccc3c(O)c([N+](=O)[O-])c(=O)oc3c2)cc1 [Example 135, 7-(3-[4-Carbomethoxyphenoxy]propoxy)-4-hydroxy-3-nitrocoumarin]
0.1 | CCCc1ccccc1OCC(O)COc1ccc2c(O)c([N+](=O)[O-])c(=O)oc2c1 (centres unmarked) [Example 163, 4-Hydroxy-7-(2-hydroxy3-[2-n-propylphenoxy]propoxy)-3-nitro-coumarin]
10 | CCc1cc2c(O)c([N+](=O)[O-])c(=O)oc2cc1OCCCOc1ccccc1 [Example 132, 6-Ethyl-4-hydroxy-3-nitro-7-(3-phenoxy-propoxy) coumarin]
10 | N#Cc1ccc(OCCCOc2ccc3c(O)c([N+](=O)[O-])c(=O)oc3c2)cc1 [Example 160, 7-(3[4-Cyanophenoxy]-propoxy)-4-hydroxy-3-nitrocoumarin]
10 | O=c1oc2cc(OCCOc3ccccc3)ccc2c(O)c1[N+](=O)[O-] [Example 126, 4-Hydroxy-3-nitro-7-(2-phenoxyethoxy) coumarin]
10 | O=C(O)c1ccc(OCCCOc2ccc3c(O)c([N+](=O)[O-])c(=O)oc3c2)cc1 [Example 134, 7-(3-[4-Carboxyphenoxy]propoxy)-4-hydroxy-3-nitrocoumarin]

Same assay, conditions: second results table, unit inferred; isolated guinea pig ileum, rat SRS-A; read-out: SRS-A antagonism on Guinea Pig ileum: Approximate concentration to give 50% inhibition of a less than maximal response to SRS-A

IC50 [µM] | Compound
1 | N#CC1C(=O)c2ccc(OCCc3ccccc3)cc2C1=O (centres unmarked) [Example 189, 2-Cyano-5-(2-phenylethoxy)indan-1,3-dione]
1 | Cc1cc2c(cc1OCCCOc1ccccc1)C(=O)C([N+](=O)[O-])C2=O (centres unmarked) [Example 185, 5-Methyl-2-nitro-6-(3-phenoxypropoxy)indan-1,3-dione]
